# Measurements published in a melting point compilation (Tetko et al.; mined from patent text by program, amines drawn as free bases though some values may be those of a salt).
row,SMILES,melting point
1,Cc1ccc(-c2ccccc2-c2nnn[nH]2)cc1,148 to 150 °C
2,CCOC(=S)C(C)Cc1ccc(OCC(=O)O)cc1 (stereo unspecified),77 to 78 °C
3,CS(=O)(=O)c1nc2c(F)cccc2s1,160 °C
4,Cn1ncc2nn(-c3cc(C(F)(F)F)ccc3F)c(=O)c(Cl)c21,177 to 182 °C
5,NS(=O)(=O)c1cnc(-c2cn(-c3cc(C(F)(F)F)cc(-c4ccc(C(F)(F)F)cc4)n3)cn2)s1,> 266 °C
6,c1ccc(-c2cnc(NC3=NCC4(CN5CCC4CC5)O3)s2)cc1 (stereo unspecified),187 to 189 °C
7,CCCn1c(=O)c2[nH]c(-c3ccc(OCC(=O)O)cc3)nc2n(CCC)c1=O,214 to 216 °C
8,CCCn1cnc2cc(CN3CCN(C(c4ccccc4)c4ccccc4)CC3)ccc21,155 °C
9,O=C(O)c1cn(CC2CC2)c2ccccc12,157 °C
10,CCCCCCCCCCCCCCCCCCOc1cc(C(=O)OC)cc(C(=O)N(CC(=O)OCC)CC(=O)OCC)c1,57 to 60 °C
11,O=C(O)CN1C(=O)C(NC(=O)Nc2ccc(Cl)cc2)N=C(c2ccccc2)c2ccccc21 (stereo unspecified),178 to 180 °C
12,O=C(C=Cc1ccccc1)c1cccc(NC(=O)c2ccn3c2CSC3c2cccnc2)c1 (stereo unspecified),190 °C
13,N#Cc1ccc(N(Cc2ccc(Br)cc2)n2cnnc2)cc1-c1ccc(OS(N)(=O)=O)cc1,122 to 123 °C
14,O=C(O)CCC(=O)CC(=O)c1cccnc1,156 to 158 °C
15,Nc1cc([N+](=O)[O-])ccc1Nc1cccc(-c2nccs2)c1,146 to 159 °C
16,O=C1OC(CCOc2cccc3ccccc23)C(O)=C1O (stereo unspecified),163 to 164 °C
17,C[C@@H](n1cnc2cc(C(F)(F)F)ccc2c1=O)[C@](O)(Cn1cncn1)c1ccc(F)cc1F,142 to 143 °C
18,N#CC(C#N)(CCCSC(F)(F)F)CC(F)(F)C(F)(F)C(F)(F)C(F)(F)C(F)(F)F,88 to 90 °C
19,CCC(C#N)C(Br)c1ccc(Br)cc1 (stereo unspecified),87 °C

row,SMILES,melting point
1,COc1cc(N=C=S)nc(OC)c1,85 to 86 °C
2,CS(=O)(=O)c1ccc(C2=C(c3ccc(F)cc3)CC3(CC3)C2)cc1,140 to 142 °C
3,Cc1cccc(C)c1N(CCCc1cccnc1)C(=O)CC(C)N1C(=O)c2ccccc2C1=O (stereo unspecified),169 to 171 °C
4,Cc1nc2ccc3c(c2nc1C)C(=O)c1ccccc1C3=O,> 400 °C
5,COc1ccc(Nc2ccnc3nc(CO)ccc23)cc1,275 to 281 °C
6,Cc1noc(NS(=O)(=O)c2c(C)sc3ccccc23)c1C,174 to 176 °C
7,CC(=O)SCCNC(=O)[C@H](CS)NC(=O)C(C)C,117 to 120 °C
8,CC=CC(=O)Nc1n[nH]c2ccc(C(F)(F)F)cc12,242 °C
9,CS(=O)(=O)OCCNC(=O)C(O)C(Oc1ccccc1[N+](=O)[O-])c1ccccc1 (stereo unspecified),122 to 125 °C
10,CCc1ccc(Oc2ccc(N3CCN(c4cccc(C)c4)CC3)nn2)cc1,107 °C
11,N#CCc1cc(Br)ccc1Sc1ccccc1,118 to 120 °C
12,Cc1ccc2[nH]c(=O)n(CCS)c(=O)c2c1,309 to 311 °C
13,CSc1nnc(-c2ccc3occ(-c4cccc(OC(F)(F)F)c4)c3c2)o1,113 to 114 °C
14,Nc1ccccc1CC1NCCc2ccccc21 (stereo unspecified),69 to 71 °C
15,Cc1cc(-c2nc3c(Cl)cccc3c(=O)n2-c2ccc(Br)cc2)cc(C)c1OCCO,185 to 186 °C
16,CCCCC1(N(C)C)CC=C(c2[nH]c3ccccc3c2CCN2C(=O)c3ccccc3C2=O)CC1 (stereo unspecified),125 to 130 °C
17,Cn1c(=Nc2cccnc2)sc2ncccc2c1=O,160 °C
18,Cc1c(Cc2ccccc2)c(=O)oc2cc(OCC#N)cc(OCC#N)c12,147 to 154 °C
19,CC1(C)C(=O)N(c2ccc(C#N)c(C(F)(F)F)c2)C(=O)N1CCCCO[N+](=O)[O-],74 to 75 °C

row,SMILES,melting point
1,Nc1nc(-c2ccc(F)cc2)cc(-c2ccc(F)cc2)n1,207 to 210 °C
2,CC1(c2ccccc2)Cc2cc(OCCO)c(Cl)c(Cl)c2C1=O (stereo unspecified),188 to 190 °C
3,COC(=O)C1=CNC=Cc2c1n(C)c1ccccc21,131 to 132 °C
4,COc1ccc(-c2nc(-c3ccccc3)c(N(c3ccccc3)c3ccccc3)s2)cc1,152 to 155 °C
5,NC(=O)N(O)CC=Cc1cccc(F)c1Sc1ccc(Cl)cc1,125 to 127 °C
6,CCCCCCCCCCc1ccc2ccc(OC)cc2c1,29.9 to 30.8 °C
7,O=C(Nc1ccc(-n2nc(C(F)(F)F)cc2C(F)(F)F)cc1)c1cccc(CO)c1,160 to 162 °C
8,CN1CC=C(c2cccc3ccc(O)cc23)CC1,182 to 184 °C
9,O=C1N(Cc2ccccn2)c2ccccc2C12COc1cc3c(cc12)OCCO3 (stereo unspecified),144 to 146 °C
10,O=C(O)C1Cc2c(ncn2Cc2ccccc2O)CN1C(=O)C(c1ccccc1)c1ccccc1 (stereo unspecified),187 to 190 °C
11,CCOC(=O)C(=CNc1cc(OCc2ccccc2)c(OCc2ccccc2)cn1)C(=O)OCC,117 °C
12,CCOCCn1c(C)c(C2(c3ccc(N(C)C)cc3C)OC(=O)c3ccccc32)c2ccccc21 (stereo unspecified),170 to 171 °C
13,"CCOc1ccccc1OCC(O)CN (single isomer, unassigned; (-))",87 °C
14,Cn1nc(-c2c(F)cccc2Cl)nc1-c1ccc(Oc2ccc(C(F)(F)F)cn2)c(Cl)c1,116 to 117 °C
15,CCC(C)NC1=NS(=O)(=O)c2cc(C(F)(F)F)ccc2N1 (stereo unspecified),234 to 236 °C
16,CC(=O)NC(Cc1ccccc1)C(C)=O (stereo unspecified),96 to 97 °C
17,COc1cc(OC)nc(-c2c(C)[nH]c3ccccc23)n1,182 to 184 °C
18,CC(=O)OCc1ccc(N(c2ccccc2)c2ccc(C=O)cc2)cc1,86 to 89 °C

# More lines, now with the values ahead:
row,melting point,SMILES
1,157 to 158 °C,O=C(NCCO)c1cccc(-c2ccc3c(c2)C(Oc2cccc(C(F)(F)F)c2)CC3)c1 (stereo unspecified)
2,122 to 123 °C,COc1ccc2cc([C@H](C)C(=O)OCC(=O)O)ccc2c1
3,190 to 195 °C,CC(C)(C)OC(=O)Nc1ccc(NC(=O)CCCCC2CCSS2)cc1 (stereo unspecified)
4,163 °C,COC(=O)C1=C(C)NC(C)=C(C(=O)OC(C)C)C1c1cc([N+](=O)[O-])ccc1Cl (stereo unspecified)
5,50 °C,COC(=O)c1cncc(OC2SCC(OC(C)=O)C(OC(C)=O)C2OC(C)=O)c1 (stereo unspecified)
6,133 to 135 °C,CCC(=O)C(=Cc1cc(O)c(O)c([N+](=O)[O-])c1)C(=O)CC
7,171 to 173 °C,Cc1ccc(-c2c(CNC(=O)OC(C)(C)C)n(CC(C)C)c(=O)c3ccc(/C=C/C(=O)O)cc23)cc1
8,126 to 127 °C,O=C(NC1CC1)c1cccc2c1CC(NC1CC1)CO2 (stereo unspecified)
9,65 to 67 °C,CC1(C)CC(=O)c2c(O)ccc(Br)c2C1
10,180 °C,CCCCC(=O)N[C@H]1CC[C@H](CCN2CCN(c3nccc4c3CCO4)CC2)CC1
11,343 to 346 °C,O=c1[nH]c2ncc(-c3ccc4[nH]ccc4c3)nc2n1CC1CCCCC1
12,41 to 42 °C,CC1(C)C2CCC1(C)C(O)(c1ccccc1)C2 (stereo unspecified)
13,144 to 146 °C,CCn1ncc(C(=O)c2ccc(Cl)cc2Cl)c1O
14,72 to 73 °C,C=C(OCC)c1cc(N)c(OC)c(C(=O)OC)n1
15,156 to 158 °C,COc1ccc2cc(C3CCN(C[C@H](O)COc4cccc5oc(-c6nnc(C)o6)cc45)CC3)ccc2c1
16,112 °C,CC(=O)OC1CSC(Oc2ccccc2C(C)=O)C(OC(C)=O)C1OC(C)=O (stereo unspecified)
17,218 to 220 °C,CN1CCN(c2ccc(C(=O)NC3(C(=O)NCC#N)CCCCC3)cc2)CC1
18,113 to 115 °C,COC(=O)c1cc(N2C(=O)C3=C(CCCC3)C2=O)ccc1Cl
19,202 to 203 °C,CC(=O)C1CCC2C3CCC4CC(O)C(N5CCSC(C)(C)C5)CC4(C)C3C(=O)CC12C (stereo unspecified)
20,105 to 106 °C,Cc1c(C)c(O)c([N+](=O)[O-])c(C)c1O
21,191 to 194 °C,CCS(=O)(=O)Nc1cc(-c2ncnc(C(F)(F)F)c2Cl)c(F)cc1C#N
22,118 to 120 °C,COC(=O)CCn1c(C(=O)O)cc2ccccc21
23,162 to 164 °C,C#Cc1ccc(CO[C@@H]2COc3nc([N+](=O)[O-])cn3C2)cc1

row,melting point,SMILES
1,200 to 203 °C,CC=Cc1cccc2c(=O)c(C)c(NC(=O)OC(C)(C)C)oc12
2,194 to 195 °C,COc1cccc(CNc2ncnc3c2sc2nc(N4CCCC4)c4c(c23)CC(C)(C)CC4)c1OC
3,78 to 79 °C,CC(=O)c1cc(C)n(CCO)n1
4,> 200 °C,CS(=O)(=O)Nc1cc(C(O)CNC2CCN(c3ccc(C=C4SC(=O)NC4=O)cc3Br)CC2)ccc1O (stereo unspecified)
5,133 to 134 °C,CN(C)c1nc2cc(Br)ccn2n1
6,149 to 150 °C,CN(C)Cc1cc(C(=O)C2CCCCC2)cc(C(C)(C)C)c1O
7,231 to 236 °C,N#CC1CCc2cc(C(=O)O)ccc2C1 (stereo unspecified)
8,157 °C,O=C(c1ccc(F)cc1)C1CCN(CCCn2c(=O)[nH]c3ccc(Cl)cc32)CC1
9,73 to 74 °C,COc1ccc2c(c1OC)CCC2=O
10,130 to 132 °C,CCc1ccc(C(=NO)c2ccc(F)cc2)c(O)c1
11,148 to 149 °C,CCOC(=O)Cc1c(C)ncnc1O
12,225 to 226 °C,CCOC(=O)C1(NS(=O)(=O)c2ccc3c(Cl)cnc(NC(=N)N)c3c2)CCCC1
13,179 °C,O=C(O)c1cc(NCc2c(F)c(F)c(C(F)(F)F)c(F)c2F)ccc1O
14,303 to 304 °C,COc1cccc(C(=O)O)c1OCCN1CCC(c2cn(Cc3ccoc3)c3cnccc23)CC1
15,192 to 194 °C,CCCn1c(CCOC)nc2c(N)nc3cc(OC4CCOC4)ccc3c21 (stereo unspecified)
16,259 to 262 °C,CC1(C)C(=O)c2c(cc(O)c(Cl)c2Cl)C1c1ccccc1 (stereo unspecified)
17,112 to 118 °C,CC(C)(C)OC(=O)NCCNC(=O)c1cscn1
18,142 to 152 °C,CCOC(=O)C(=CNc1nnc(C)s1)C(=O)c1cc(F)c(Cl)nc1Cl
19,169 to 170 °C,CC1C(=NCCCN(C)C)c2c([nH]c3ccc(Cl)cc3c2=O)CC1c1ccc(C(F)(F)F)cc1 (stereo unspecified)
20,155 to 156 °C,COc1ncccc1NC(=NC#N)NC(NC(=O)c1ccc(Cl)cc1)C(C)(Cl)Cl (stereo unspecified)
21,107 to 110 °C,COc1cc(Br)c(O)c(C=O)c1
22,150 to 151 °C,COc1ccc2c(c1)C(=O)N(CCN(C)CCN1C(=O)c3cc(OC)ccc3C(C)(C)C1=O)C(=O)C2(C)C
